These results are taken from paper PMC3964510 (Diabetes, 2014).

For the assay, the target named is T1, protein tyrosine phosphatase (PTP) 1B (Homo sapiens, UniProt P18031).
T1 sequence (P18031 1-435): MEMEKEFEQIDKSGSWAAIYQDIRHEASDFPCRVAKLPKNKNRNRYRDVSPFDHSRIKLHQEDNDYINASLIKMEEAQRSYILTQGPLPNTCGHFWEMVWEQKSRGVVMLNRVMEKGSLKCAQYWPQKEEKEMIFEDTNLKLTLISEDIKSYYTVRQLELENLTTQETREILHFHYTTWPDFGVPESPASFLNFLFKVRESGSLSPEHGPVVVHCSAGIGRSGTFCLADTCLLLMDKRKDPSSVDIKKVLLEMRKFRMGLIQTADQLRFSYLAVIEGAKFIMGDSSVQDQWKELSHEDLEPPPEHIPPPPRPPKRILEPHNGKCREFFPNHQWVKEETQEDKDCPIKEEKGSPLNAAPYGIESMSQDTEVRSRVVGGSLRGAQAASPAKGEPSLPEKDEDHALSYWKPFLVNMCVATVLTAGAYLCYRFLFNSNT
Briefly: in vitro PTP1B inhibitor screening assay. Format: biochemical.

Take `C[C@H]1Oc2cc3c(-c4c(O)cc(O)c5c(O)c6c(cc45)O[C@H](C)[C@@H](C)C6=O)c(O)cc(O)c3c(O)c2C(=O)[C@@H]1C` [4548-G05, [9,9′-Bi-4H-naphtho[2,3-b]pyran]-4,4′-dione,2,2′,3,3′-tetrahydro-5,5′,6,6′,8,8′-hexahydroxy-2,2′,3,3′-tetramethyl]: inhibition was half-maximal at 75.3 ± 2.52 µM (IC50).
